We go through 3 compounds from paper PMC10882265 (RSC Advances, 2024).

The target of one experiment is human recombinant DPP-4 (Homo sapiens, UniProt P27487). As to the kind of experiment: biochemical. As to conditions: Inhibition of DPP-4 IC50, mean of three experiments.
The next experiment relates to murine model of T2DM. As to conditions: oral, high fat diet + streptozotocin T2DM ref 35; cited from earlier work.

Values joined by “and” are separate entries in the source; they are usually repeats but may differ in a detail not shown here. Identical values can stand only once.

Chain of human recombinant DPP-4 (P27487 whole entry): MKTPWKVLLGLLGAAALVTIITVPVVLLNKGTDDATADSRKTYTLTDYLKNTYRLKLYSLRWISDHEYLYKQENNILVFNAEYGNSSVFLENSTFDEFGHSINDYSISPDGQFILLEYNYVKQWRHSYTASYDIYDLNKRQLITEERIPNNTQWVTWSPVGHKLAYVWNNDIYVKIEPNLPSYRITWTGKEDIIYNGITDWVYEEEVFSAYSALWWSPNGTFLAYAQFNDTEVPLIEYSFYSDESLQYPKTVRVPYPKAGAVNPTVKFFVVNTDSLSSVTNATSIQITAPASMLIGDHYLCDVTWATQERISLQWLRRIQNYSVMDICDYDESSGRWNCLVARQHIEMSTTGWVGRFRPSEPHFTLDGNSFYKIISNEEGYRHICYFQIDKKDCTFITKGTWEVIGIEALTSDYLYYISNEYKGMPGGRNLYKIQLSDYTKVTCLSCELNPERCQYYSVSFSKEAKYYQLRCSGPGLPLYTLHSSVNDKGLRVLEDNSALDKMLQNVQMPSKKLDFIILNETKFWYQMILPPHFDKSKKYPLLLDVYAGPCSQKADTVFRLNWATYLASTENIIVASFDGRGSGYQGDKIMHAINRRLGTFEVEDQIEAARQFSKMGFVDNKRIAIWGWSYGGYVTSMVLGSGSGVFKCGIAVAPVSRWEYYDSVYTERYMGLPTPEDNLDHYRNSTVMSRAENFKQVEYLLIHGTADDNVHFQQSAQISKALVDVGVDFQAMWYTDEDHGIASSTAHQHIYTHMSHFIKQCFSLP

`NC(CC(=O)NNCc1ccc(F)c(F)c1)Cc1cc(F)c(F)cc1F` (stereo not shown) [LASSBio-2127 (13), 3-amino-N'-(3,4-difluorobenzyl)-4-(2,4,5-trifluorophenyl)butanehydrazide]: the IC50 (usually the concentration that inhibits the measured activity by half) on human recombinant DPP-4 is 2900 nM and 2930 nM.
Consider `N[C@H](CC(=O)N/N=C/c1ccc(F)c(F)c1)Cc1cc(F)c(F)cc1F` [LASSBio-2130 (6-S), (S,E)-3-amino-N'-(3,4-difluorobenzylidene)-4-(2,4,5-trifluorophenyl)butanehydrazide], for which, on human recombinant DPP-4, the IC50 came to 44700 nM.
As to `N[C@@H](CC(=O)N1CCn2c(nnc2C(F)(F)F)C1)Cc1cc(F)c(F)cc1F` [Sitagliptin (1), sitagliptin], in the experiment with murine model of T2DM, the antihyperglycemic effect result was “showed antihyperglycemic effects”; the “effect on cardiac and renal dysfunction” value was “improved cardiac and renal dysfunction”.
